Experimental data as given in US20250367098A1, “SUNSCREEN COMPOSITION FOR LACTOBACILLUS AND S. EPIDERMIDIS PROTECTION ON SKIN” (DSM IP Assets B.V., priority 2022, published 2025).

Assays:
[1] = system: Lactobacillus crispatus CIP 103604; test: In vitro UV model: bacterial survival after UV irradiation (96-well, MPN method); format: cell-based
Protocol: (§1) Accordingly, the inventors developed a targeted in vitro liquid model in 96-well microplate format to screen for UV protective actives (“UV filters”) on bacterial survival upon UV irradiation. The effects of selected UV irradiation conditions tested on microbial population of Lactobacillus crispatus (L. crispatus) and Staphylococcus epidermidis (S. epidermidis) in the presence of UV filter samples and combinations thereof were evaluated with the evolution of the residual microbial population after 4 h. The inhibition of bacterial growth, as consequence of UV irradiation, was compared to that of the same strain without UV irradiation and was expressed in percentage of survival (%). The microbial strains used in this study are listed below and their cultures are reconstituted according to the direction of the supplier collection center of the reference strain, CRBIP (Institut Pasteur Collection, France) or ATCC (American Type Culture Collection, USA): • Lactobacillus crispatus CIP 103604 • Staphylococcus epidermidis ATCC 12228 The 96-well plate was filled with the culture media (140 μL) and a calibrated inoculum (20 μL) of each bacterial strain was added to reach […] colony forming units per milliliter (cfu/mL) final concentration. After contamination, the sample was added (40 μL; 20% v/v) in triplicate and was thoroughly mixed to ensure a homogeneous distribution. Then, the plate was submitted to UV stress through an UV irradiator system (BioSun, Vilber Lourmat, France) according to the UV doses presented Table 1 below. The specific UV dose selected was between 10 and 49% survival of the microbial population. For the microbial population counts, aliquots of the contaminated samples of L. crispatus and S. epidermidis were serially diluted (4 decimal dilutions followed by 8 binary dilutions, in triplicate) in culture media on 96-wells plates with triphenyltetrazolium. Then, the plates were incubated at 37° C.±2,5° C. during 48 h taking into account the respiratory type of each strain. […] The use level of the single UV filter and combinations in the test formulations was calculated to obtain a predicted in vitro SPF value of 5.75+/−0.15 and 23.45+/−0.65, respectively (Table 2). […] The relative percentage of protection (%) was calculated from the difference between the survival percentages of samples and vehicle control (with UV irradiation) and divided to the survival percentage of the vehicle control. Consequently, the survival of each microbial population and the relative protection by the UV filter(s) were calculated and are summarized in the Table 2.

[2] = system: Staphylococcus epidermidis ATCC 12228; test: as above; format: cell-based
Protocol: as §1

| SMILES | survival rate of L. crispatus after UV radiation (in words) ([1]; summary statement) | protection of S. epidermidis from UV radiation (in words) ([2]; summary statement) | L. crispatus relative protection by the UV filter(s) vs. vehicle control ([1]; 50 SED (500 mJ/cm^2 UVA+UVB), sample at 20% v/v, after 4 h) | S. epidermidis relative protection by the UV filter(s) vs. vehicle control ([2]; 15 SED (150 mJ/cm^2 UVA+UVB), sample at 20% v/v, after 4 h) |
| --- | --- | --- | --- | --- |
| CCCCC(CC)COC(=O)C(C#N)=C(c1ccccc1)c1ccccc1 (stereo not shown) [Inv. 1, Octocrylene] | particularly good survival rate | efficiently protecting | – | – |
| CCCCC(CC)COC(=O)c1ccc(Nc2nc(Nc3ccc(C(=O)OCC(CC)CCCC)cc3)nc(Nc3ccc(C(=O)OCC(CC)CCCC)cc3)n2)cc1 (stereo not shown) [Inv. 3, Ethylhexyl Triazone] | – | – | (+100) % | (+59) % |
